Tests used:
HCT-15 [1] = test: Growth inhibition of human HCT15 cells at 1 x 10^-5 M after 24 hrs by MTT assay relative to control; format: functional; settings: HCT-15, 24 h, read-out: GI
HEK-293T = test: Growth inhibition of HEK293T cells after 24 hrs by MTT assay; format: cell-based; settings: Homo sapiens
T47D [2] = test: Growth inhibition of human T47D cells after 24 hrs by MTT assay; format: functional, cell-based
[3] = Selectivity index, ratio of IC50 for HEK293T cells to IC50 for human NCI-H522 cells; format: functional
[4] = Selectivity index, ratio of IC50 for HEK293T cells to IC50 for human T47D cells; format: functional
[5] = Selectivity index, ratio of IC50 for HEK293T cells to IC50 for human PA1 cells; format: functional
T47D [6] = test: Growth inhibition of human T47D cells at 1 x 10^-5 M after 24 hrs by MTT assay relative to control; format: functional; settings: read-out: GI
HepG2 [7] = test: Growth inhibition of human HepG2 cells at 1 x 10^-5 M after 24 hrs by MTT assay relative to control; format: functional; settings: HepG2, 24 h, read-out: GI
NCI-H522 [8] = test: Growth inhibition of human NCI-H522 cells at 1 x 10^-5 M after 24 hrs by MTT assay relative to control; format: functional; settings: NCI-H522, 24 h, read-out: GI
[9] = Selectivity index, ratio of IC50 for HEK293T cells to IC50 for human HCT15 cells; format: functional
PA-1 [10] = test: Growth inhibition of human PA1 cells after 24 hrs by MTT assay; format: functional, cell-based; settings: PA-1, 24 h
HepG2 [11] = test: Growth inhibition of human HepG2 cells after 24 hrs by MTT assay; format: functional, cell-based; settings: HepG2, 24 h
HCT-15 [12] = test: Growth inhibition of human HCT15 cells after 24 hrs by MTT assay; format: functional, cell-based; settings: HCT-15, 24 h
[13] = Selectivity index, ratio of IC50 for HEK293T cells to IC50 for human HepG2 cells; format: functional
PA-1 [14] = test: Growth inhibition of human PA1 cells at 1 x 10^-5 M after 24 hrs by MTT assay relative to control; format: functional; settings: PA-1, 24 h, read-out: GI
NCI-H522 [15] = test: Growth inhibition of human NCI-H522 cells after 24 hrs by MTT assay; format: functional, cell-based; settings: NCI-H522, 24 h

SMILES | inhibition of growth at 10 µM (HCT-15 [1]) | IC50 (HEK-293T) | IC50 (T47D [2]) | Ratio IC50 [3] | Ratio IC50 [4] | Ratio IC50 [5] | inhibition of growth at 10 µM (T47D [6]) | inhibition of growth at 10 µM (HepG2 [7]) | inhibition of growth at 10 µM (NCI-H522 [8]) | Ratio IC50 [9] | IC50 (PA-1 [10]) | IC50 (HepG2 [11]) | IC50 (HCT-15 [12]) | Ratio IC50 [13] | inhibition of growth at 10 µM (PA-1 [14]) | IC50 (NCI-H522 [15])
O=C1C2CC=CCC2C(=O)N1CCOCCOCCN1C(=O)C2CC=CCC2C1=O (stereo not drawn) | 45% | 44.2 µM | 14.5 µM | 2.5 - 4.5 | 2.5 - 4.5 | 2.5 - 4.5 | 51% | 53% | 59% | 2.5 - 4.5 | 18.8 µM | 17.3 µM | 21.1 µM | 2.5 - 4.5 | 31% | 38 µM
O=C1c2nc[nH]c2C(=O)N1CCN1C(=O)c2nc[nH]c2C1=O | 33% | 62.7 µM | 19.1 µM | 2.5 - 4.5 | 2.5 - 4.5 | 2.5 - 4.5 | 21% | 38% | 56% | 2.5 - 4.5 | 17.5 µM | 24.1 µM | 17.9 µM | 2.5 - 4.5 | 24% | 32.8 µM
O=C1c2nccnc2C(=O)N1CCCC1OCC2(CO1)COC(CCCN1C(=O)c3nccnc3C1=O)OC2 (stereo not drawn) | 35% | 55.9 µM | 20.1 µM | 2.5 - 4.5 | 2.5 - 4.5 | 2.5 - 4.5 | 49% | 53% | 43% | 2.5 - 4.5 | 43.7 µM | 12.4 µM | 22.7 µM | 2.5 - 4.5 | 20% | 28.2 µM

Source: ChEMBL document CHEMBL4041541, “Solvent free, catalyst free, microwave or grinding assisted synthesis of bis-cyclic imide derivatives and their evaluation for anticancer activity” (Bioorg Med Chem Lett, 2017)
